Test results published in US20250345277A1, “Ionizable Liposome, Preparation Thereof, and Application Thereof in Gene Delivery” (MAXIRNA (ZHEJIANG) TECHNOLOGY CO. LTD., priority 2021, published 2025).

Key:
PBMC cells = assay: In vitro transfection of PBMC cells with EGFP mRNA LNP preparation (flow cytometry); type: cell-based; design: Cell Viability: concentration or dose not given beside the values; settings: for Cell Viability / Positive Rate (EGFP): LNP preparation added with ApoE4; for Fluorescence Intensity: with ApoE4, EGFP mRNA expression level normalized based on the sample with the highest fluorescence intensity
Text: The description is based on peripheral blood mononuclear cells PBMC (Shanghai Oribiotech Co., Ltd.), human peripheral blood leukemia T cell Jurkat (ATCC), tumor infiltrating lymphocyte TIL (isolated from resected tumor tissue of a liver cancer patient, the preparation method refers to CN114763530A), mouse bone marrow-derived dendritic cells DC2.4 (Cell Bank of the Chinese Academy of Sciences), and Chinese hamster ovary cells CHO (ATCC) were used as verified cell lines for liposome transfection. PBMC, Jurkat, and TIL cells grew in suspension, while DC2.4 and CHO cells grew by adherent culture. All the operation steps of cell culture must strictly abide by the prescribed procedures, and sterile reagents is used to perform aseptic operations under a sterile workbench. The main steps are as follows: • 1) Cell recovery: the preserved cell cryopreservation solution was taken out of the −80° C. refrigerator, and was immediately put in a 37° C. water bath for rapid and continuous shaking, and was completely melted within one minute. Fresh medium was added to the 15 mL centrifuge tube in advance, and the cell solution was added to the centrifuge tube in a biological safety cabinet. A centrifuge tube of the same quality was taken and placed symmetrically in a centrifuge, centrifuged at a low speed at 1200 rpm for 5 min. After centrifugation, the supernatant was removed, and an appropriate amount of medium was slowly added along the tube wall. After the cells were evenly dispersed by blowing gently, the cell suspension was pipette and added to the culture bottle prepared in advance. The state and distribution of the cells in the early stage of recovery were observed under a microscope. The culture bottle was placed in a 5% CO2 incubator and incubated at 37° C., and the recovery time was recorded. • 2) Cell subculture: Under the microscope, if the cell density in the field of view reaches 80%-90%, the cells can be subcultured. Adherent cells need to be digested with trypsin. In order to avoid the residual serum in the culture medium to reduce the activity of trypsin, DPBS solution was added to wash once after removing the original culture medium. After remove the DPBS solution, trypsin was added to degrade the protein at the junction between cells. This separates the cells for further culture. The cells were gently shaked evenly and put into the incubator for digestion for 2 min. Immediately after the digestion was completed, an appropriate amount of medium was added to the original petri dish to terminate the digestion. Finally, the cells were carefully blowed off using a pipette and blowed until they are evenly dispersed, and then inoculated and subcultured at a certain ratio according to the experimental requirements.
• 1) Coating antibodies: 6-well plates were pre-coated, CD3 and CD28 antibodies were taken out from the −20° C. refrigerator, and melted for later use. The above two antibodies were added into the DPBS solution at a concentration of 5 µg/mL, mixed well, added into a six-well plate at 1 mL/well, put in a 37° C. incubator, and waited 4 hours for later use. • 2) PBMC recovery: the frozen PBMC cells were taken out from the −80° C. refrigerator, put in a 37° C. water bath to quickly thaw the cells, added to the preheated medium after thawing, centrifuged at 1200 rpm for 5 min, the supernatant was discarded, and an appropriate amount of AIMN-V medium with 500 U/ml IL-2 was added to resuspend PBMC. • 3) the DPBS coated with the antibody was removed with a pipette, the cell suspension was transferred to a six-well plate pre-coated with the antibody at 4 mL per well, placed in a 5% CO2 incubator at 37° C. for 3-5 days for activation and culture. • 4) According to the experimental arrangement, PBMC cells were plated on a 24-well plate 30 minutes in advance on the day of cell transfection. […]

[1] = Entrapment efficiency of LNP preparation encapsulating EGFP mRNA; type: physicochemical; settings: LNP ionizable lipid/DOPE/cholesterol/DSPE-PEG2000 35/16/46.5/2.5 mol% encapsulating EGFP mRNA
Procedure: The ionizable lipid compound of Example 1 was dissolved in ethanol with DOPE, cholesterol and DSPE-PEG2000 (all purchased from AVT (Shanghai) Pharmaceutical Technology Co., Ltd.) at a molar ratio of 35:16:46.5:2.5 to prepare ethanol lipid solution, and enhanced green fluorescent protein (EGFP) mRNAs (Shanghai Maximna Pharmaceutical Engineering Co., Ltd., JN-4201) were diluted in 20 mM citrate buffer (pH=6.1) to obtain mRNA aqueous solution. Ethanol lipid solution and mRNA aqueous solution were mixed at a volume ratio of 1:3 by using a microfluidic device (Micro&Nano (Shanghai) Instrument Technology Co., Ltd., model: INano™ML), LNPs were prepared with a weight ratio of approximately 10:1 between total lipids and mRNAs. The medium was replaced by ultrafiltration, ethanol was removed and volumed with DPBS. Finally, the lipid nanoparticles were filtered through a 0.2 μm sterile filter to obtain a LNP formulation encapsulating eGFP mRNA using ionizable lipid/DOPE/cholesterol/DSPE-PEG2000 (35/16/46.5/2.5 mol %), the concentration of mRNAs being 0.002 mg/mL-0.5 mg/mL. […]

SMILES | Entrapment Efficiency [1] | Cell Viability (PBMC cells; PBMCs) | Positive Rate (EGFP) (PBMC cells; PBMCs) | Fluorescence Intensity (PBMC cells; PBMCs) | transfection efficiency (FIG. 2) (PBMC cells; PBMC, in the absence of AopE4) | transfection efficiency (FIG. 3) (PBMC cells; PBMC, with ApoE4) | change of transfection efficiency with ApoE4 (FIG. 3) (PBMC cells; PBMC, with ApoE4 versus without) | cell viability by flow cytometry (FIG. 1) (PBMC cells; PBMCs, after in vitro transfection, ApoE4 did not affect viability)
CCCCCCCCCCCCC(O)CN(CCN1CCN(CCN(CCN(CC(O)CCCCCCCCCCCC)CC(O)CCCCCCCCCCCC)CCN(CC(O)CCCCCCCCCCCC)CC(O)CCCCCCCCCCCC)CC1)CC(O)CCCCCCCCCCCC (stereo not shown) [A-C14] | 80.31% | 91.20% | 72.30% | 0.76 | – | – | – | –
CCCCCCCCCCCCCCC(O)CN(CCN1CCN(CCN(CCN(CC(O)CCCCCCCCCCCCCC)CC(O)CCCCCCCCCCCCCC)CCN(CC(O)CCCCCCCCCCCCCC)CC(O)CCCCCCCCCCCCCC)CC1)CC(O)CCCCCCCCCCCCCC (stereo not shown) [A-C16] | 90.30% | 90.00% | 76.30% | 0.81 | – | – | – | –
CCCCCCCCCCCCCCCCC(O)CN(CCN1CCN(CCN(CCN(CC(O)CCCCCCCCCCCCCCCC)CC(O)CCCCCCCCCCCCCCCC)CCN(CC(O)CCCCCCCCCCCCCCCC)CC(O)CCCCCCCCCCCCCCCC)CC1)CC(O)CCCCCCCCCCCCCCCC (stereo not shown) [A-C18] | 90.56% | 85.00% | 81.90% | 0.87 | – | – | – | –
CCCCCCCCCCC(O)CN(CCOCCOCCOCCN(CCOCCOCCOCCN(CC(O)CCCCCCCCCC)CC(O)CCCCCCCCCC)CCN1CCN(CCOCCOCCOCCN(CC(O)CCCCCCCCCC)CC(O)CCCCCCCCCC)CC1)CC(O)CCCCCCCCCC [D-C12] | 91.80% | 85.60% | 65.60% | 0.27 | – | – | – | –
CCCCCCCCCCCCC(O)CN(CCOCCOCCOCCN(CCOCCOCCOCCN(CC(O)CCCCCCCCCCCC)CC(O)CCCCCCCCCCCC)CCN1CCN(CCOCCOCCOCCN(CC(O)CCCCCCCCCCCC)CC(O)CCCCCCCCCCCC)CC1)CC(O)CCCCCCCCCCCC [D-C14] | 92.36% | 88.70% | 96.70% | 0.25 | – | – | – | –
CCCCCCCCCCCCCCC(O)CN(CCOCCOCCOCCN(CCOCCOCCOCCN(CC(O)CCCCCCCCCCCCCC)CC(O)CCCCCCCCCCCCCC)CCN1CCN(CCOCCOCCOCCN(CC(O)CCCCCCCCCCCCCC)CC(O)CCCCCCCCCCCCCC)CC1)CC(O)CCCCCCCCCCCCCC [D-C16] | 86.56% | 82.20% | 71.70% | 0.32 | – | – | – | –
CCCCCCCCCCCCCCCCC(O)CC(CCOCCOCCOCCN(CCOCCOCCOCCN(CC(O)CCCCCCCCCCCCCCCC)CC(O)CCCCCCCCCCCCCCCC)CCN1CCN(CCOCCOCCOCCN(CC(O)CCCCCCCCCCCCCCCC)CC(O)CCCCCCCCCCCCCCCC)CC1)CC(O)CCCCCCCCCCCCCCCC [D-C18] | 88.54% | 83.30% | 64.40% | 0.41 | – | – | – | –

The next lines start with results.

Entrapment Efficiency [1] | SMILES | Cell Viability (PBMC cells; PBMCs) | Positive Rate (EGFP) (PBMC cells; PBMCs) | Fluorescence Intensity (PBMC cells; PBMCs) | transfection efficiency (FIG. 2) (PBMC cells; PBMC, in the absence of AopE4) | transfection efficiency (FIG. 3) (PBMC cells; PBMC, with ApoE4) | change of transfection efficiency with ApoE4 (FIG. 3) (PBMC cells; PBMC, with ApoE4 versus without) | cell viability by flow cytometry (FIG. 1) (PBMC cells; PBMCs, after in vitro transfection, ApoE4 did not affect viability)
89.80% | CCCCCCCCCCC(O)CN(CCN1CCN(CCN(CCN(CC(O)CCCCCCCCCC)CC(O)CCCCCCCCCC)CCN(CC(O)CCCCCCCCCC)CC(O)CCCCCCCCCC)CC1)CC(O)CCCCCCCCCC (stereo not shown) [A-C12] | 89.70% | 73.30% | 0.72 | – | – | – | –
89.93% | CCCCCCCCCCC(O)CN(CCOCCN(CCOCCN(CC(O)CCCCCCCCCC)CC(O)CCCCCCCCCC)CCN1CCN(CCOCCN(CC(O)CCCCCCCCCC)CC(O)CCCCCCCCCC)CC1)CC(O)CCCCCCCCCC (stereo not shown) [B-C12, 19-(2-(4-(2-(2-(di(2-hydroxydodecyl)amino)ethoxy)ethyl)piperazin-1-yl)ethyl)-13, 15-bis(2-hydroxydodecyl)-16,22-dioxa-13,19,25-triazaheptakadecane-11,27-diol] | 85.00% | 83.00% | 0.81 | – | – | – | –
95.21% | CCCCCCCCCCCCC(O)CN(CCOCCN(CCOCCN(CC(O)CCCCCCCCCCCC)CC(O)CCCCCCCCCCCC)CCN1CCN(CCOCCN(CC(O)CCCCCCCCCCCC)CC(O)CCCCCCCCCCCC)CC1)CC(O)CCCCCCCCCCCC (stereo not shown) [B-C14] | 90.00% | 85.50% | 1 | low transfection efficiency | over 75% | increased | high viability
95.24% | CCCCCCCCCCC(O)CN(CCOCCOCCN(CCOCCOCCN(CC(O)CCCCCCCCCC)CC(O)CCCCCCCCCC)CCN1CCN(CCOCCOCCN(CC(O)CCCCCCCCCC)CC(O)CCCCCCCCCC)CC1)CC(O)CCCCCCCCCC (stereo not shown) [C-C12] | 89.30% | 56.50% | 0.41 | – | – | – | –
85.62% | CCCCCCCCCCCCC(O)CN(CCN(CCN1CCN(C)CC1)CCN(CC(O)CCCCCCCCCCCC)CC(O)CCCCCCCCCCCC)CC(O)CCCCCCCCCCCC (stereo not shown) [E-C14] | 86.50% | 64.60% | 0.12 | – | – | – | –
95.21% | CCCCCCCCCCCCC(O)CN(CCOCCN(CCOCCN(CC(O)CCCCCCCCCCCC)CC(O)CCCCCCCCCCCC)CCN1CCN(C)CC1)CC(O)CCCCCCCCCCCC (stereo not shown) [F-C14] | 83.20% | 63.70% | 0.16 | – | – | – | –
84.02% | CCCCCCCCCCCCC(O)CN(CCOCCOCCN(CCOCCOCCN(CC(O)CCCCCCCCCCCC)CC(O)CCCCCCCCCCCC)CCN1CCN(C)CC1)CC(O)CCCCCCCCCCCC (stereo not shown) [G-C14] | 79.40% | 63.40% | 0.1 | – | – | – | –
91.67% | CCCCCCCCCCCCC(O)CN(CCOCCOCCOCCN(CCOCCOCCOCCN(CC(O)CCCCCCCCCCCC)CC(O)CCCCCCCCCCCC)CCN1CCN(C)CC1)CC(O)CCCCCCCCCCCC (stereo not shown) [H-C14] | 81.70% | 62.10% | 0.07 | – | – | – | –
